Reference: PubChem BioAssay (NCI)
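Following 48 hours of exposure in 96-well plates, responses at five concentrations were used to interpolate endpoints linearly. At the TGI there is no net growth.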

Assays:
Assay in all cases: DTP human tumour cell line panel, 48 h
DU-145 prostate = tested on: DU-145 prostate
HOP-92 NSCLC = tested on: HOP-92 NSCLC
HS 578T breast = tested on: HS 578T breast
HT29 colon = tested on: HT29 colon
IGROV1 ovarian = tested on: IGROV1 ovarian
KM12 colon = tested on: KM12 colon
M14 melanoma = tested on: M14 melanoma
NCI/ADR-RES ovarian = tested on: NCI/ADR-RES ovarian
OVCAR-8 ovarian = tested on: OVCAR-8 ovarian
RPMI-8226 leukemia = tested on: RPMI-8226 leukemia
SK-MEL-2 melanoma = tested on: SK-MEL-2 melanoma
SR leukemia = tested on: SR leukemia
T-47D breast = tested on: T-47D breast
A498 renal = tested on: A498 renal
MDA-MB-231 breast = tested on: MDA-MB-231 breast

SMILES | TGI (DU-145 prostate) | TGI (HOP-92 NSCLC) | TGI (HS 578T breast) | TGI (HT29 colon) | TGI (IGROV1 ovarian) | TGI (KM12 colon) | TGI (M14 melanoma) | TGI (NCI/ADR-RES ovarian) | TGI (OVCAR-8 ovarian) | TGI (RPMI-8226 leukemia) | TGI (SK-MEL-2 melanoma) | TGI (SR leukemia) | TGI (T-47D breast) | TGI (A498 renal) | TGI (MDA-MB-231 breast)
CC1(C)CC2C(/C1=N/O)C1(C)CCCC2(C)C1O (configuration not stated) | > 100 µM | > 100 µM | > 100 µM | > 100 µM | > 100 µM | > 100 µM | > 100 µM | > 100 µM | > 100 µM | > 100 µM | > 100 µM | > 100 µM | > 100 µM | – | –
COc1cccc(N2C(=O)C3c4[nH]c5ccc(C)cc5c4C4CCC(C)CC4C3C2=O)c1 (configuration not stated) | > 100 µM | > 100 µM | 64.9 µM | > 100 µM | > 100 µM | – | > 100 µM | > 100 µM | > 100 µM | > 100 µM | > 100 µM | – | – | > 100 µM | > 100 µM
O=C1COc2cc3c(cc2N1)SCCC(=O)N3 | – | > 100 µM | – | > 100 µM | > 100 µM | > 100 µM | > 100 µM | – | > 100 µM | > 100 µM | > 100 µM | > 100 µM | – | > 100 µM | –
O=[N+]([O-])c1cc2ccc1OCc1cccc(n1)COc1ccc(cc1[N+](=O)[O-])C=NCCCCCCCCN=C2 | > 100 µM | > 100 µM | > 100 µM | > 100 µM | > 100 µM | > 100 µM | > 100 µM | > 100 µM | > 100 µM | > 100 µM | > 100 µM | > 100 µM | – | > 100 µM | > 100 µM
CCC1(CC)C(=O)NN(C(=O)c2ccc(Cl)cc2)C1=O | > 100 µM | – | > 100 µM | > 100 µM | > 100 µM | > 100 µM | > 100 µM | > 100 µM | > 100 µM | > 100 µM | > 100 µM | > 100 µM | > 100 µM | – | > 100 µM
CN(C(=O)c1cc2c(s1)sc1c(=O)n(C)c3ccccc3c12)c1ccccc1 | > 100 µM | > 100 µM | – | > 100 µM | > 100 µM | > 100 µM | > 100 µM | 77.1 µM | > 100 µM | – | > 100 µM | > 100 µM | > 100 µM | – | > 100 µM
COc1ccc(-c2cc(=O)c3ccc(F)cc3[nH]2)cc1 | – | > 100 µM | – | > 100 µM | > 100 µM | > 100 µM | > 100 µM | – | > 100 µM | > 100 µM | – | > 100 µM | – | – | –
CC(C)(C)Cc1cc(O)ccc1O | > 100 µM | > 100 µM | – | > 100 µM | > 100 µM | > 100 µM | > 100 µM | 94.5 µM | > 100 µM | – | – | > 100 µM | > 100 µM | > 100 µM | > 100 µM
CC(=O)OC1CC2C(C)(C)OC(=O)CC(OC(C)=O)[C@]2(C)C2CCC3(C)C(=CCC3c3ccoc3)[C@]12C (some centres not stated) | – | 29.9 µM | – | 39.3 µM | 82.8 µM | > 100 µM | 46.5 µM | – | 87.1 µM | > 100 µM | 25.1 µM | 50.8 µM | – | > 100 µM | –
COc1cc(/C=C2\C(=O)N(c3ccc(NC(C)=O)cc3)C(c3ccccc3)S2(=O)=O)cc(OC)c1OC (configuration not stated) | > 100 µM | > 100 µM | – | > 100 µM | > 100 µM | > 100 µM | > 100 µM | > 100 µM | > 100 µM | > 100 µM | > 100 µM | > 100 µM | > 100 µM | > 100 µM | > 100 µM
COc1ccc2oc(=O)c(-c3csc(-c4ccccc4)n3)cc2c1 | > 100 µM | 56 µM | 94.5 µM | > 100 µM | > 100 µM | > 100 µM | > 100 µM | – | – | > 100 µM | > 100 µM | > 100 µM | > 100 µM | – | > 100 µM
CCNC1=C(NC(=O)c2ccc(OC)cc2)C(=O)c2ccccc2C1=O | > 100 µM | > 100 µM | > 100 µM | 76.9 µM | > 100 µM | > 100 µM | 55.9 µM | 99.5 µM | > 100 µM | > 100 µM | – | > 100 µM | > 100 µM | – | > 100 µM
CNC(=O)OCc1nc(N=[N+]=[N-])n(C)c1COC(=O)NC | > 100 µM | 86.7 µM | > 100 µM | > 100 µM | > 100 µM | > 100 µM | – | > 100 µM | > 100 µM | > 100 µM | 80.6 µM | 86 µM | – | > 100 µM | > 100 µM
COCCNC1CCC(=O)c2[nH]c3ccccc3c21 (configuration not stated) | > 100 µM | > 100 µM | > 100 µM | > 100 µM | > 100 µM | > 100 µM | > 100 µM | > 100 µM | > 100 µM | > 100 µM | > 100 µM | > 100 µM | – | > 100 µM | > 100 µM
CC(C)=CC[C@H]1C[C@@]2(CC=C(C)C)C(=O)/C(=C(/O)c3ccccc3)C(=O)[C@](CC=C(C)C)(C2=O)C1(C)C | – | 19.1 µM | 59.6 µM | 23.4 µM | 20.3 µM | 19.9 µM | 25.2 µM | 42.2 µM | 35 µM | > 100 µM | 8.24 µM | > 100 µM | 35.2 µM | 26.3 µM | 22.3 µM
Cc1ccc(S(=O)(=O)OI(O)CC(F)(F)F)cc1 | > 100 µM | > 100 µM | – | > 100 µM | > 100 µM | > 100 µM | > 100 µM | > 100 µM | > 100 µM | > 100 µM | > 100 µM | > 100 µM | > 100 µM | > 100 µM | > 100 µM
O=C1O/C(=C\C=C\CO)C=C1/C=C/CO | 50.7 µM | – | – | 88.5 µM | 38.6 µM | > 100 µM | 43.1 µM | 89.1 µM | 38.6 µM | 47.6 µM | 43.4 µM | 71.4 µM | 51.7 µM | – | 52.8 µM
CCN(CC)c1ccc2cc(-c3csc(C)n3)c(=O)oc2c1 | > 100 µM | 92.7 µM | 67.5 µM | > 100 µM | > 100 µM | > 100 µM | > 100 µM | – | – | > 100 µM | > 100 µM | > 100 µM | > 100 µM | – | > 100 µM
